Assay results: patent publication US20260207569A1, “LPA1 ANTAGONISTS FOR TREATING INTERSTITIAL LUNG DISEASE” (Bristol-Myers Squibb Company, priority 2022, published 2026)
Entries after “also recorded” stand apart in the source; their conditions may differ.

Columns and labels:
participants with IPF = assay: Phase 2 IPF cohort efficacy: rate of change in ppFVC / FVC to Week 26; format: in vivo, human
Description: A total of 278 participants with IPF were randomized and 276 participants were treated as of […] analyses data cut-off (4 Aug. 2022). Male and female participants ≥40 years of age with IPF and percent predicted forced vital capacity (ppFVC) ≥40% and percent predicted DLCO (ppDLCO) ≥25%; diagnosed within 7 years of screening; having a centrally-read chest HRCT obtained at screening that was consistent with UIP or probable UIP, or having a lung biopsy consistent with UIP, were eligible to enter the study. The mean baseline ppFVC for all subjects was 76.5%. In the primary IPF cohort, participants were randomized (1:1:1) to receive 30 mg or 60 mg Compound A or placebo (PBO) twice daily for 26 weeks. Participants were stratified by standard of care (SoC) IPF therapy (pirfenidone versus nintedanib versus none) and region (Japan versus Rest of World) at randomization.
The primary objective of the study was to determine the rate of change in ppFVC from baseline to Week 26. The primary objective was evaluated with a two estimand framework to handle the intercurrent event of dose reduction to 10 mg BID or matching PBO when pre-specified low BP criteria is met. The primary estimand is adopted to estimate treatment effect when dose reduction is implemented. The supplementary estimand is adopted to estimate the effect of treatment without dose reduction.
Analysis Strategy: The primary estimand was to evaluate the efficacy of Compound A at 30 mg or 60 mg twice daily, compared to PBO in IPF participants who met the enrollment criteria, with or without use of SoC. The rate of decline in ppFVC (%) from baseline to Week 26 was compared using the difference between each dose and PBO as a population level summary regardless of dose reduction or treatment discontinuation for any reason (treatment policy strategy).
Analysis Strategy: The supplementary estimand for the primary objective is to evaluate the efficacy of Compound A at 30 mg or 60 mg twice daily without dose reduction, compared to the PBO in IPF subjects who met the enrollment criteria, with or without use of SoC. The rate of decline in ppFVC (%) from baseline to Week 26 has been compared using the difference between each dose and PBO as a population level summary regardless of treatment discontinuation for any reason (treatment policy strategy). In the event of dose reduction, data collected after dose reduction will not be considered relevant to the treatment effect of interest and therefore, will be treated as missing (while-on-treatment strategy).

[1] = Phase 1 Part A single ascending dose (SAD) and food effect/pH cohort, blood pressure and safety, healthy participants; format: in vivo, human; conditions: for Time of maximum mean DBP reduction / Time of maximum mean SBP reduction: within 12 h post dose
Description: The study was performed in 3 parts in 112 healthy male and female participants, including 24 Japanese participants. Female participants were to be not of childbearing potential. The present study was designed to evaluate the safety and tolerability, PK, and exploratory PD of an oral suspension of Compound A. Parts A and B (Cohort B1 only) enrolled healthy participants and was conducted at a site in The Netherlands and Part B (Cohort B2 to B5) enrolled healthy non-Japanese participants and was conducted at a site in the United Kingdom (UK). Part C enrolled healthy Japanese participants and was conducted at the same site in the UK.
Part A was an SAD study in a planned number of 6 sequential dose escalation cohorts (3, 10, 30, 100, 150, or 250 mg) of 8 healthy participants (6 active+2 placebo) each, under fasted conditions. Eligible participants in Part A (excluding those in Cohort A7 [food effect (FE)/pH cohort]) received a single administration of study drug (Compound A or placebo) under fasted conditions. In Cohort A1 to Cohort A6, sentinel dosing was employed (1 active+1 placebo, followed after 48 hours by the remaining participants of the cohort [5 active+1 placebo]). […] In addition to the 6 ascending dose cohorts, a cohort of 6 healthy participants (Cohort A7; 6 active, 100 mg Compound A) was included to assess the effect of food and pH on the bioavailability of Compound A in a 3-period, open-label, fixed-sequence, crossover design (FE/pH cohort).
Physical examinations, vital sign measurements (including orthostasis testing in Cohort A6, Cohort B3 to B5, and C1 to C3 at selected time points), 12-lead electrocardiogram (ECG), and clinical laboratory evaluations were performed at selected times throughout the study. In addition, Holter monitoring was performed for the first 24 hours post dose on Day 1 in Part A (not in FE/pH cohort), and also for the first 24 hours post dose on Day 1 and Day 14 in Parts B and C. Participants were closely monitored for adverse events (AEs). Blood samples were collected for up to 14 days (follow-up visit) after (last) study drug administration for PK analysis. In addition, blood and urine were collected for exploratory biomarker assessments and for biobanking of samples for potential analyses. Urine was collected for potential PK analysis for up to 96 hours after a single dose of Compound A or placebo was administered in the SAD part, and for up to 24 hours after the first (morning) dose of study drug on Day 1 and for up to 24 hours after the last (morning) dose of study drug on Day 14 in the MAD parts.

[2] = 100 mg fasted + famotidine (A7)

With CCCN(C)C(=O)OCc1c(-c2ccc(O[C@H]3CCC[C@H](C(=O)O)C3)c(C)n2)nnn1C [Compound A, (1S,3S)-3-((2-methyl-6-(1-methyl-5-(((methyl(propyl)carbamoyl)-oxy)methyl)-1H-1,2,3-triazol-4-yl)pyridin-3-yl)oxy)cyclohexane-1-carboxylic acid] the “Treatment differences in rates of change in ppFVC with and without background antifibrotic” value (participants with IPF; IPF cohort) was “consistent between both groups”, the “Efficacy vs PBO” value (participants with IPF; IPF, 30 mg BID, overall population) was “did not demonstrate efficacy compared to PBO” and the “Response by background SoC subgroup vs PBO” value (participants with IPF; IPF, 60 mg BID, SoC (nintedanib or pirfenidone) and no SoC) was “favorable responses on the primary endpoint; also recorded: favorable efficacy; also recorded: favorable impact on FVC compared with PBO when used alone or on background therapy with nintedanib or pirfenidone”. For the same compound, the “Treatment response (rate of decline of ppFVC and FVC) vs PBO” value (participants with IPF; IPF, 60 mg BID, Week 26, overall population) was “demonstrated favorable treatment responses versus PBO”, the “Slope difference (SE) in rate of decline in FVC, 60 mg - PBO” value (participants with IPF; IPF, 60 mg BID, baseline to Week 26, supplementary estimand, Overall) was 61.4 (29.35) mL and the “Relative treatment benefit (ppFVC decline) compared to PBO” value (from here on “Relative treatment benefit”) (participants with IPF; IPF, 60 mg BID, primary estimand, not on background SoC) was 113%. For the same compound, the “Relative treatment benefit” value (participants with IPF; IPF, 60 mg BID, primary estimand, on background SoC) was 39%, the “Relative treatment benefit” value (participants with IPF; IPF, 60 mg BID, supplementary estimand, not on background SoC) was 123% and the “Relative treatment benefit” value (participants with IPF; IPF, 60 mg BID, supplementary estimand, on background SoC) was 44%. The “Time of maximum mean DBP reduction” value ([1]; 100 mg fasted (A7)) was 5 h, the “Time of maximum mean SBP reduction” value ([1]; 100 mg fasted (A7)) was 8 h and the “Time of maximum mean DBP reduction” value [1, 2] was 6 h. For the same compound, the “Time of maximum mean SBP reduction” value [1, 2] was 6 h, the “Time of maximum mean DBP reduction” value ([1]; 100 mg fed (A7)) was 5 h and the “Time of maximum mean SBP reduction” value ([1]; 100 mg fed (A7)) was 6 h. The “Time of maximum mean DBP reduction” value ([1]; SAD 10 mg (A2)) was 6 h, the “Time of maximum mean SBP reduction” value ([1]; SAD 10 mg (A2)) was 8 h and the “Time of maximum mean DBP reduction” value ([1]; SAD 30 mg (A3)) was 5 h. The “Time of maximum mean SBP reduction” value ([1]; SAD 30 mg (A3)) was 4 h, the “Time of maximum mean DBP reduction” value ([1]; SAD 100 mg (A4)) was 5 h and the “Time of maximum mean SBP reduction” value ([1]; SAD 100 mg (A4)) was 2 h. For the same compound, the “Time of maximum mean DBP reduction” value ([1]; SAD 150 mg (A5)) was 6 h, the “Time of maximum mean SBP reduction” value ([1]; SAD 150 mg (A5)) was 6 h and the “Effect on SBP and DBP” value ([1]; SAD cohorts) was “decreased SBP and DBP dose dependently, reversibly, and mostly asymptomatically with minimal effect on heart rate”. For the same compound, the Safety and tolerability ([1]; single and multiple dose oral administration, healthy participants) was “generally safe and well tolerated” and the “Time after dosing of maximum BP reduction” value ([1]; single and multiple dose, healthy participants) was 4 to 8 h.
